Like-named read-outs stand apart in the source and are kept apart here.
Key:
[1] = test system: PopE-F10 M-833 resistant clone (PfSTART1 N330K); assay: Growth inhibition assay (72 h, LDH activity); assay type: cell-based, Plasmodium falciparum; conditions: for EC50: 72 h, PopE-F10 (N330K)
Experimental: The drug was then removed, and parasites were allowed to recover. Another cycle of drug treatment (3 μM M-833) was then resumed. The resistant lines were cloned out by limiting dilution (diluting the culture into a 96-well plate to achieve an average of ~0.3 parasites per well), prior to growth inhibition assays and genomic DNA (gDNA) extraction (DNeasy Blood and Tissue kit (Qiagen)[18].
Parasite growth assays with inhibitory compounds were performed as per[11] and are fully described in the Supplementary Information. […]
Growth inhibition assays. Synchronised ring-stage parasites (0.3-0.6% parasitemia, 2% haematocrit) were grown for 72 h in a serial-dilution of the compound under […]
and compound 4. Note that M-833 was first purchased from MolPort (MolPort -002-267-916) then made in-house at WEHI: the differences observed in EC50s across experiments are attributed to the different batches of M -833. For some experiments, 0, 0.25 or 2.5 mM of glucosamine (GlcN) was also added. Experiments were set up in technical duplicates or triplicates. Following a freeze -thaw cycle, lactate dehydrogenase (LDH) activity was assessed as an indicator of parasite growt h 5. 30 μL of parasite culture was incubated for 30 min in the dark with 75 μL Malstat mixture (0.1 M Tris pH 9.0, 20 g/L lactic acid, pH 7.5, 0.2% Triton-X100, 0.5 g/L acetylpyridine adenine dinucleotide (APAD, Sigma), 200 μg/mL nitroblue tetrazolium (NBT; Sigma), 1 μg/mL phenozine ethosulfate (PES; Sigma)). Absorbance was then measured at 650 nm, transformed using the formula below, plotted against the logarithm of the concentrations, and a non-linear regression (log(inhibitor) vs. response, variable slope) was calculated using GraphPad Prism to assess the half-inhibitory […]
Growth inhibition % = (1 − average(sample)− average(uRBC)) ∗ 100 […]
The DMSO samples were also used to assess growth of parasite in the presence of 0.25 and 2.5 mM GlcN (normalised by DMSO in 0 mM GlcN). […]

in vitro = conditions: human

In the case of `Cc1cc(Cl)c(S(=O)(=O)N2CCCC2)cc1OCC(=O)NC1CCCCC1` [M-833], the “Normalised to DMSO” value ([1]; M-833 0.15625 uM, Pop E-F10 replicate 3) is reported as 108.125, the “Normalised to DMSO” value ([1]; M-833 0.3125 uM, Pop E-F10 replicate 1) is reported as 113.047 and the “Normalised to DMSO” value ([1]; M-833 0.3125 uM, Pop E-F10 replicate 3) is reported as 113.296. For the same compound, the “Normalised to DMSO” value ([1]; M-833 0.625 uM, Pop E-F10 replicate 1) was 116.996, the “Normalised to DMSO” value ([1]; M-833 0.625 uM, Pop E-F10 replicate 3) was 104.749 and the “Normalised to DMSO” value ([1]; M-833 1.25 uM, Pop E-F10 replicate 1) was 105.924. For the same compound, the “Normalised to DMSO” value ([1]; M-833 1.25 uM, Pop E-F10 replicate 3) was 104.326, the “Normalised to DMSO” value ([1]; M-833 2.5 uM, Pop E-F10 replicate 1) was 101.551 and the “Normalised to DMSO” value ([1]; M-833 2.5 uM, Pop E-F10 replicate 3) was 105.276. For the same compound, the “Normalised to DMSO” value ([1]; M-833 5 uM, Pop E-F10 replicate 1) was 94.8519, the “Normalised to DMSO” value ([1]; M-833 5 uM, Pop E-F10 replicate 3) was 96.4122 and the “Normalised to DMSO” value ([1]; M-833 10 uM, Pop E-F10 replicate 1) was 72.2144. For the same compound, the “Normalised to DMSO” value ([1]; M-833 10 uM, Pop E-F10 replicate 3) was 80.0563, the EC50 ([1]; Plasmodium falciparum, Supplementary Table 1) was > 20 µM and the inhibition at 0.0390625 µM ([1]; Plasmodium falciparum, M-833 0.0390625 uM, Pop E-F10 replicate 1, read-out: % Inhibition) was -9.1%. The inhibition at 0.0390625 µM ([1]; Plasmodium falciparum, M-833 0.0390625 uM, Pop E-F10 replicate 3, read-out: % Inhibition) was -3.8%, the inhibition at 0.078125 µM ([1]; Plasmodium falciparum, M-833 0.078125 uM, Pop E-F10 replicate 1, read-out: % Inhibition) was -8.04% and the inhibition at 0.078125 µM ([1]; Plasmodium falciparum, M-833 0.078125 uM, Pop E-F10 replicate 3, read-out: % Inhibition) was -4.85%. The inhibition at 0.15625 µM ([1]; Plasmodium falciparum, M-833 0.15625 uM, Pop E-F10 replicate 1, read-out: % Inhibition) was -16.5%, the inhibition at 0.15625 µM ([1]; Plasmodium falciparum, M-833 0.15625 uM, Pop E-F10 replicate 3, read-out: % Inhibition) was -8.13% and the inhibition at 0.3125 µM ([1]; Plasmodium falciparum, M-833 0.3125 uM, Pop E-F10 replicate 1, read-out: % Inhibition) was -13%. For the same compound, the inhibition at 0.3125 µM ([1]; Plasmodium falciparum, M-833 0.3125 uM, Pop E-F10 replicate 3, read-out: % Inhibition) was -13.3%, the inhibition at 0.625 µM ([1]; Plasmodium falciparum, M-833 0.625 uM, Pop E-F10 replicate 1, read-out: % Inhibition) was -17% and the inhibition at 0.625 µM ([1]; Plasmodium falciparum, M-833 0.625 uM, Pop E-F10 replicate 3, read-out: % Inhibition) was -4.75%. It also gave an inhibition at 1.25 µM ([1]; Plasmodium falciparum, M-833 1.25 uM, Pop E-F10 replicate 1, read-out: % Inhibition) of -5.92%, an inhibition at 1.25 µM ([1]; Plasmodium falciparum, M-833 1.25 uM, Pop E-F10 replicate 3, read-out: % Inhibition) of -4.33% and an inhibition at 2.5 µM ([1]; Plasmodium falciparum, M-833 2.5 uM, Pop E-F10 replicate 1, read-out: % Inhibition) of -1.55%. It also gave an inhibition at 2.5 µM ([1]; Plasmodium falciparum, M-833 2.5 uM, Pop E-F10 replicate 3, read-out: % Inhibition) of -5.28%, an inhibition at 5 µM ([1]; Plasmodium falciparum, M-833 5 uM, Pop E-F10 replicate 1, read-out: % Inhibition) of 5.15% and an inhibition at 5 µM ([1]; Plasmodium falciparum, M-833 5 uM, Pop E-F10 replicate 3, read-out: % Inhibition) of 3.59%. For the same compound, the inhibition at 10 µM ([1]; Plasmodium falciparum, M-833 10 uM, Pop E-F10 replicate 1, read-out: % Inhibition) was 27.8%, the inhibition at 10 µM ([1]; Plasmodium falciparum, M-833 10 uM, Pop E-F10 replicate 3, read-out: % Inhibition) was 19.9% and the inhibition at 0.0390625 µM ([1]; Plasmodium falciparum, Pop E-F10 replicate 1, M-833 0.0390625 uM) was -3%. It also gave an inhibition at 0.078125 µM ([1]; Plasmodium falciparum, Pop E-F10 replicate 1, M-833 0.078125 uM) of -0.769%, an inhibition at 0.15625 µM ([1]; Plasmodium falciparum, Pop E-F10 replicate 1, M-833 0.15625 uM) of -1.15% and an inhibition at 0.3125 µM ([1]; Plasmodium falciparum, Pop E-F10 replicate 1, M-833 0.3125 uM) of -1.42%. It also gave an inhibition at 0.625 µM ([1]; Plasmodium falciparum, Pop E-F10 replicate 1, M-833 0.625 uM) of -0.0475%, an inhibition at 1.25 µM ([1]; Plasmodium falciparum, Pop E-F10 replicate 1, M-833 1.25 uM) of 1.29% and an inhibition at 2.5 µM ([1]; Plasmodium falciparum, Pop E-F10 replicate 1, M-833 2.5 uM) of 3.54%. For the same compound, the inhibition at 5 µM ([1]; Plasmodium falciparum, Pop E-F10 replicate 1, M-833 5 uM) was 13.5%, the inhibition at 10 µM ([1]; Plasmodium falciparum, Pop E-F10 replicate 1, M-833 10 uM) was 32.5% and the “Normalised to DMSO” value ([1]; Pop E-F10 replicate 1, M-833 0.0390625 uM) was 103. For the same compound, the “Normalised to DMSO” value ([1]; Pop E-F10 replicate 1, M-833 0.078125 uM) was 100.769, the “Normalised to DMSO” value ([1]; Pop E-F10 replicate 1, M-833 0.3125 uM) was 101.424 and the “Normalised to DMSO” value ([1]; Pop E-F10 replicate 1, M-833 0.625 uM) was 100.047. The “Normalised to DMSO” value ([1]; Pop E-F10 replicate 1, M-833 1.25 uM) was 98.7091, the “Normalised to DMSO” value ([1]; Pop E-F10 replicate 1, M-833 2.5 uM) was 96.4594 and the “Normalised to DMSO” value ([1]; Pop E-F10 replicate 1, M-833 5 uM) was 86.4832. For the same compound, the “Normalised to DMSO” value ([1]; Pop E-F10 replicate 1, M-833 10 uM) was 67.4893, the “(av-uRBC) / (DMSO-uRBC) x100” value ([1]; PopE-F10, 3.04832 nM, biological replicate 1) was 111.434 and the “(av-uRBC) / (DMSO-uRBC) x100” value ([1]; PopE-F10, 3.04832 nM, biological replicate 2) was 114.392. The “(av-uRBC) / (DMSO-uRBC) x100” value ([1]; PopE-F10, 3.04832 nM, biological replicate 3) was 116.409, the “(av-uRBC) / (DMSO-uRBC) x100” value ([1]; PopE-F10, 9.14495 nM, biological replicate 1) was 115.6 and the “(av-uRBC) / (DMSO-uRBC) x100” value ([1]; PopE-F10, 9.14495 nM, biological replicate 2) was 114.392. The “(av-uRBC) / (DMSO-uRBC) x100” value ([1]; PopE-F10, 9.14495 nM, biological replicate 3) was 132.26, the “(av-uRBC) / (DMSO-uRBC) x100” value ([1]; PopE-F10, 27.4348 nM, biological replicate 1) was 114.804 and the “(av-uRBC) / (DMSO-uRBC) x100” value ([1]; PopE-F10, 27.4348 nM, biological replicate 2) was 115.461. For the same compound, the “(av-uRBC) / (DMSO-uRBC) x100” value ([1]; PopE-F10, 27.4348 nM, biological replicate 3) was 121.608, the “(av-uRBC) / (DMSO-uRBC) x100” value ([1]; PopE-F10, 82.3045 nM, biological replicate 1) was 112.716 and the “(av-uRBC) / (DMSO-uRBC) x100” value ([1]; PopE-F10, 82.3045 nM, biological replicate 2) was 116.595. For the same compound, the “(av-uRBC) / (DMSO-uRBC) x100” value ([1]; PopE-F10, 82.3045 nM, biological replicate 3) was 121.195, the “(av-uRBC) / (DMSO-uRBC) x100” value ([1]; PopE-F10, 246.914 nM, biological replicate 1) was 110.71 and the “(av-uRBC) / (DMSO-uRBC) x100” value ([1]; PopE-F10, 246.914 nM, biological replicate 2) was 117.042. For the same compound, the “(av-uRBC) / (DMSO-uRBC) x100” value ([1]; PopE-F10, 246.914 nM, biological replicate 3) was 120.187, the “(av-uRBC) / (DMSO-uRBC) x100” value ([1]; PopE-F10, 740.741 nM, biological replicate 1) was 108.694 and the “(av-uRBC) / (DMSO-uRBC) x100” value ([1]; PopE-F10, 740.741 nM, biological replicate 2) was 116.419. The “(av-uRBC) / (DMSO-uRBC) x100” value ([1]; PopE-F10, 740.741 nM, biological replicate 3) was 115.329, the “(av-uRBC) / (DMSO-uRBC) x100” value ([1]; PopE-F10, 2222.22 nM, biological replicate 1) was 107.392 and the “(av-uRBC) / (DMSO-uRBC) x100” value ([1]; PopE-F10, 2222.22 nM, biological replicate 2) was 111.175. The “(av-uRBC) / (DMSO-uRBC) x100” value ([1]; PopE-F10, 2222.22 nM, biological replicate 3) was 110.489, the “(av-uRBC) / (DMSO-uRBC) x100” value ([1]; PopE-F10, 6666.67 nM, biological replicate 1) was 97.5292 and the “(av-uRBC) / (DMSO-uRBC) x100” value ([1]; PopE-F10, 6666.67 nM, biological replicate 2) was 97.5177. For the same compound, the “(av-uRBC) / (DMSO-uRBC) x100” value ([1]; PopE-F10, 6666.67 nM, biological replicate 3) was 73.4437, the “(av-uRBC) / (DMSO-uRBC) x100” value ([1]; PopE-F10, 20000 nM, biological replicate 1) was 52.2279 and the “(av-uRBC) / (DMSO-uRBC) x100” value ([1]; PopE-F10, 20000 nM, biological replicate 2) was 44.7285. For the same compound, the “(av-uRBC) / (DMSO-uRBC) x100” value ([1]; PopE-F10, 20000 nM, biological replicate 3) was 18.154, the “Fold change compared to 3D7” value ([1]; Supplementary Table 1, EC50 on PopE-F10 vs 3D7) was > 128 fold and the EC50 ([1]; Supplementary Table 1) was > 10 µM. For the same compound, the CC50 (in vitro) was > 40 µM.
